The results in this text go back to article PMC12148441, “The mechanism of peptidoglycan O-acetylation in Gram-negative bacteria typifies bacterial MBOAT-SGNH acyltransferases [drawing 1]” (The Journal of Biological Chemistry, 2025).

Structures are written as SMILES.

For this assay, the target named is T1, NgPatBΔ100 (Neisseria gonorrhoeae, UniProt Q5F966).
T1 construct: gene NGO_0533; SGNH domain (Δ100, N-terminal truncation), E. coli BL21(DE3), His-SUMO tag removed by Ulp1; catalytic Ser133, His305, Asp302
T1 sequence (Q5F966 entry or part of it, stated change not applied): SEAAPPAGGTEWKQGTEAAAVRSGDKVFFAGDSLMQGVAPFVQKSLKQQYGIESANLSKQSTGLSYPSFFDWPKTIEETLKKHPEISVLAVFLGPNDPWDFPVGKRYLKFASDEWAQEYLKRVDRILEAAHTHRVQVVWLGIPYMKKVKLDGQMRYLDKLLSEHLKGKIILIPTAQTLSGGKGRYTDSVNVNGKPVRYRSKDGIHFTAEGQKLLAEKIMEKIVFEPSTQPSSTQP
The experiment in a line: transacetylation of chitopentaose. The assay is classed as biochemical. Conditions: acetyl donor (1 mM acetyl-amino acids); chitopentaose acceptor; 50 mM sodium phosphate pH 7.0.

In the case of `CC(=O)Oc1ccc(C[C@H](N)C(=O)O)cc1` [O-acetyl-Tyr], the transacetylation of chitopentaose result is reported as “O-acetyl-Tyr, but not O-acetyl-Ser, were sufficient for transacetylation of chitopentaose by NgPatB”.
